Results as given in paper PMC2857986 (Journal of the American Chemical Society, 2010).

Assay: Gel formation and CD of expected cleavage fragments
Type: physicochemical

CD spectrum (secondary structure) (see supporting information): simple random coil signature
Substance: KSLSLS [MDP4a]
Gel formation / self-assembly (phosphate buffer, physiological pH, in words): no longer able to assemble and form insoluble aggregates
